Laboratory results from patent publication US10000582B2, “Ethylsulfonated hyaluronic acid biopolymers and methods of use thereof” (The Regents of the University of California, priority 2013, dated 2018).

System: platelets (platelet rich plasma)
Test: Platelet adhesion assay (SEM imaging)
Type: cell-based
Source text: Platelet adhesion experiments were visualized by scanning electron microscope (SEM) imaging (FIG. 7).

heparin was tested, and the “platelet aggregation on the material” value was “no aggregation of platelets”.
